Source: US12708608B2, “Methods of treating schizophrenia and other neuropsychiatric disorders” (UNIVERSITY OF ROCHESTER, priority 2018, dated 2026)
Entries after “also recorded” stand apart in the source; their conditions may differ. Like-named read-outs stand apart in the source and are kept apart here.

Legend:
Assay type in all cases: cell-based, human
CTR astrocytes = assay: Potassium (86Rb) uptake by control-derived astrocytes; conditions: 4 CTR lines, drug-treated
Procedure: (§1) Potassium uptake Astrocytes were plated onto poly-ornithine- and laminin-coated 24-well plates with 30,000 cells/well. For the potassium uptake assay, astrocytes were incubated with ^86Rb (1.0-3.3 uCi/well) for 15 min, and then they were washed three time with ice-cold artificial cerebrospinal fluid (aCSF, 500 μL/well). For cell lysis, 0.5N NaOH (200 μL/well) was put into each well, which was put into 5 ml cocktail liquid (Ultima Gold, Fisher Scientific, 509050575) and measured by scintillation counter (Beckman Coulter, LS6500), and the results were normalized to both total protein (BCA Protein Assay Kit, Fisher Scientific, 23227) and cell number (Hemocytometer, Fisher Scientific, 02-671-54). The aCSF solution contained (in mM) 124 NaCl, 2.5 KCl, 1.75 NaH2PO4, 2 MgCl2, 2 CaCl2, 0.04 Vit.C, 10 glucose and 26 NaHCO3, pH 7.4.
Next, functional K^+ uptake was assessed directly, in cultured SCZ- and CTR-derived astrocytes. To obtain mature SCZ and CTR astrocyte cultures, CD44-sorted astrocyte-biased progenitors were cultured in base media supplemented with 10% fetal bovine serum (FBS) and 20 ng/ml BMP4 for 3 weeks, so as to potentiate the differentiation of mature, glial fibrillary acidic protein (GFAP)-expressing, fiber-bearing astrocytes (FIGS. 5A-5C). […] Astrocytes from 4 different SCZ and 4 different CTR lines were then incubated with ^86Rb, a surrogate monovalent cation for K^+ uptake (Larsen et al., “Contributions of the Na(+)/K(+)-ATPase, NKCC1, and Kir4.1 to Hippocampal K(+) Clearance and Volume Responses,” Glia 62:608-622 (2014), which is hereby incorporated by reference in its entirety), and rubidium uptake measured as a function of both cell number and total protein.

[1] = test system: REST-overexpressing CTR astrocytes; assay: Potassium (86Rb) uptake by CTR astrocytes transduced to over-express REST
SCZ astrocytes = assay: Potassium (86Rb) uptake by schizophrenia-derived astrocytes; conditions: 4 SCZ lines, drug-treated
Procedure: as §1, with “The aCSF solution contained (in mM) 124 NaCl, 2.5 KCl, 1.75 NaH2PO4, 2 MgCl2, 2 CaCl2, 0.04 Vit.C, 10 glucose and 26 NaHCO3, pH 7.4.” left out
Next, functional K^+ uptake was assessed directly, in cultured SCZ- and CTR-derived astrocytes. […] Astrocytes from 4 different SCZ and 4 different CTR lines were then incubated with ^86Rb, a surrogate monovalent cation for K^+ uptake (Larsen et al., “Contributions of the Na(+)/K(+)-ATPase, NKCC1, and Kir4.1 to Hippocampal K(+) Clearance and Volume Responses,” Glia 62:608-622 (2014), which is hereby incorporated by reference in its entirety), and rubidium uptake measured as a function of both cell number and total protein.
To test this postulate, lentivirus was used to overexpress REST in CTR glial cells, and K^+ uptake by the transduced cells was assessed.

[2] = test system: REST shRNAi-transduced SCZ astrocytes; assay: Potassium (86Rb) uptake by SCZ astrocytes with REST knockdown

## CCCCNc1cc(C(=O)O)cc(S(N)(=O)=O)c1Oc1ccccc1 [bumetanide]
CTR astrocytes
  K+ uptake by CTR astrocytes: significantly inhibited; also recorded: efficiently decreased
[1]; 86Rb uptake, lentiviral-REST transduced CTR astrocytes, drug-treated
  K+ uptake by REST-overexpressing CTR astrocytes: Neither ouabain nor bumetanide further decreased
SCZ astrocytes
  K+ uptake by SCZ astrocytes: neither ouabain nor bumetanide affected; also recorded: neither affected
[2]; 86Rb uptake, REST shRNAi-transduced SCZ astrocytes, drug-treated
  K+ uptake by SCZ glia with REST knockdown: significantly reduced; also recorded: significantly inhibited

## C[C@@H]1O[C@@H](O[C@H]2C[C@@H](O)[C@]3(CO)[C@H]4[C@H](O)C[C@]5(C)[C@@H](C6=CC(=O)OC6)CC[C@]5(O)[C@@H]4CC[C@]3(O)C2)[C@H](O)[C@H](O)[C@H]1O [ouabain]
CTR astrocytes
  K+ uptake by CTR astrocytes: significantly inhibited; also recorded: efficiently decreased
CTR astrocytes; listed as Ouabain
  K+ uptake by CTR astrocytes: significantly inhibited
[1]
  K+ uptake by REST-overexpressing CTR astrocytes: Neither ouabain nor bumetanide further decreased
SCZ astrocytes
  K+ uptake by SCZ astrocytes: neither ouabain nor bumetanide affected; also recorded: neither affected
[2]
  K+ uptake by SCZ glia with REST knockdown: significantly reduced; also recorded: significantly inhibited

## tertiapin (ALCNCNRIIIPHMCWKKCGKK; UniProt P56587 1-21, looked up) [drug which targets Kir (inwardly rectifying K+) channels]
CTR astrocytes
  K+ uptake by CTR astrocytes: did not
